Experimental data published in paper PMC6372556, “The Neisseria gonorrhoeae Methionine Sulfoxide Reductase (MsrA/B) Is a Surface Exposed, Immunogenic, Vaccine Candidate” (Frontiers in Immunology, 2019).

Target: T1, MsrA/B
T1 construct: recombinant, msr gene of strain 1291 in pET15b (NdeI/XhoI primers), His-tagged, E. coli BL21 Star (DE3)pLysS, TALON purified; full protein 522 aa; amine-coupled to SPR chip
Assay: SPR, Biacore T200, single cycle kinetics, MsrA/B immobilized by amine coupling on CM5 chip
Type: binding, Neisseria gonorrhoeae
Conditions: free Met(O) 0.16-100 nM; no serum; substrate; sulfoxide epimer and D/L form not told
Source text: SPR, Biacore T200, single cycle kinetics, MsrA/B immobilized by amine coupling on CM5 chip on MsrA/B | MsrA/B bound to Met(O) with a high affinity, with a KD

C[S+]([O-])CC[C@H](N)C(=O)O (stereo partly shown) [Met(O)] was tested, and the Kd was 15.4 ± 3.7 nM.
